Where “and” joins values, the source holds several entries; their conditions need not be identical. Equal entries are not always repeated. Numbers after ± are expanded uncertainties.
Tests used:
[1] = DTA
[2] = Molar enthalpy of transition or fusion; settings: DSC
[3] = molar enthalpy of vaporization or sublimation; settings: 298.15 K; Crystal 1; DSC

Triple point temperature ([1]; Crystal 1) [K] | Triple point temperature ([1]; Crystal 2) [K] | Triple point temperature ([1]; Crystal 3) [K] | Molar enthalpy of transition or fusion ([2]; Crystal 1) [kcal/mol] | Molar enthalpy of transition or fusion ([2]; Crystal 2) [kcal/mol] | Molar enthalpy of transition or fusion ([2]; Crystal 3) [kcal/mol] | molar enthalpy [3] | Structure (SMILES)
400.3 ± 1.3 | 387 ± 1 | 359.5 ± 9.6 | 11.9 ± 0.574 | -0.0239 ± 0.0956 | 0.0143 ± 0.0359 | 41 ± 2.17 kcal/mol | O=C(O)CCCCCCCCCCC(=O)O [1,12-dodecanedioic acid]
403.9 ± 0.9 | 370.3 ± 0.5 | – | 11.1 ± 2.39 | 0.0956 ± 0.0478 | – | – | O=C(O)CCCCCCCCC(=O)O [1,10-decanedioic acid]
380.1 ± 1.6 | 355.3 ± 0.9 | – | 9.85 ± 0.789 | 0.382 ± 0.239 | – | 39.1 kcal/mol and 39.3 kcal/mol | O=C(O)CCCCCCCCCC(=O)O [1,11-undecanedioic acid]
386.3 ± 2.8 | – | – | 11.8 ± 0.239 | – | – | – | O=C(O)CCCCCCCCCCCC(=O)O [tridecanedioic acid]
372.4 ± 2.4 | 339.8 ± 8.4 | 330.6 ± 0.5 | 7.1 ± 0.454 | 0.167 ± 0.143 | 0.00239 | 34.5 ± 1.84 kcal/mol | O=C(O)CCCCCCCC(=O)O [1,9-nonanedioic acid]
397.3 ± 0.5 | – | – | 13.5 ± 0.813 | – | – | 41.8 ± 2.22 kcal/mol | O=C(O)CCCCCCCCCCCCC(=O)O [1,12-dodecanedicarboxylic acid]

Second part, the compound before the results:

Structure (SMILES) | Triple point temperature ([1]; Crystal 1) [K] | Triple point temperature ([1]; Crystal 2) [K] | Triple point temperature ([1]; Crystal 3) [K] | Molar enthalpy of transition or fusion ([2]; Crystal 1) [kcal/mol] | Molar enthalpy of transition or fusion ([2]; Crystal 2) [kcal/mol] | Molar enthalpy of transition or fusion ([2]; Crystal 3) [kcal/mol] | molar enthalpy [3]
O=C(O)CCCCCC(=O)O [1,7-heptanedioic acid] | 368.2 ± 3.2 | 366.3 ± 2.8 | 337.7 ± 3.2 | 5.66 ± 0.598 | – | 0.359 ± 0.143 | 31.8 ± 1.7 kcal/mol
O=C(O)CCCCCCC(=O)O [1,8-octanedioic acid] | 413.2 ± 0.5 | 403.6 ± 0.5 | 355.9 ± 1.6 | 7.34 ± 0.239 | 2.17 ± 0.0717 | 0.478 ± 0.382 | 36.1 ± 1.94 kcal/mol
O=C(O)CCCCCCCCCCCCCCC(=O)O [hexadecanedioic acid] | 395.4 ± 1.3 | – | – | 12.5 ± 0.263 | – | – | –
O=C(O)CCCCC(=O)O [1,6-hexanedioic acid] | 419 ± 2.8 | – | – | 8.05 ± 0.239 | – | – | –
O=C(O)CCC(=O)O [butanedioic acid] | 455.2 ± 2.4 | – | – | 8.13 ± 0.239 | – | – | –
O=C(O)CCCC(=O)O [1,5-pentanedioic acid] | 363.9 ± 13 | 340.5 ± 3.6 | – | 4.49 ± 0.143 | 0.55 ± 0.143 | – | 28.5 ± 1.53 kcal/mol

Source: the NIST ThermoML archive (doi:10.1016/j.jct.2004.12.011)
